From US12492188B2, “1H-benzo[D]imidazole derivatives as TLR9 inhibitors for the treatment of fibrosis” (BRISTOL-MYERS SQUIBB COMPANY, priority 2020, dated 2025)
Like-named read-outs stand apart in the source and are kept apart here.

Experiments:
Assay type in all cases: cell-based
[1] = target: T1, human TLR7 (Homo sapiens, UniProt Q9NYK1); test: TLR7 inhibition reporter assay (HEK-Blue cells, secreted embryonic alkaline phosphatase reporter); conditions: HEK-Blue cells overexpressing human TLR7, stimulated with gardiquimod 7.5 μM; read-out: TLR 7 IC50
T1 construct: host or cells: HEK-Blue cells (HEK293-derived reporter line)
T1 sequence (Q9NYK1 27-1049): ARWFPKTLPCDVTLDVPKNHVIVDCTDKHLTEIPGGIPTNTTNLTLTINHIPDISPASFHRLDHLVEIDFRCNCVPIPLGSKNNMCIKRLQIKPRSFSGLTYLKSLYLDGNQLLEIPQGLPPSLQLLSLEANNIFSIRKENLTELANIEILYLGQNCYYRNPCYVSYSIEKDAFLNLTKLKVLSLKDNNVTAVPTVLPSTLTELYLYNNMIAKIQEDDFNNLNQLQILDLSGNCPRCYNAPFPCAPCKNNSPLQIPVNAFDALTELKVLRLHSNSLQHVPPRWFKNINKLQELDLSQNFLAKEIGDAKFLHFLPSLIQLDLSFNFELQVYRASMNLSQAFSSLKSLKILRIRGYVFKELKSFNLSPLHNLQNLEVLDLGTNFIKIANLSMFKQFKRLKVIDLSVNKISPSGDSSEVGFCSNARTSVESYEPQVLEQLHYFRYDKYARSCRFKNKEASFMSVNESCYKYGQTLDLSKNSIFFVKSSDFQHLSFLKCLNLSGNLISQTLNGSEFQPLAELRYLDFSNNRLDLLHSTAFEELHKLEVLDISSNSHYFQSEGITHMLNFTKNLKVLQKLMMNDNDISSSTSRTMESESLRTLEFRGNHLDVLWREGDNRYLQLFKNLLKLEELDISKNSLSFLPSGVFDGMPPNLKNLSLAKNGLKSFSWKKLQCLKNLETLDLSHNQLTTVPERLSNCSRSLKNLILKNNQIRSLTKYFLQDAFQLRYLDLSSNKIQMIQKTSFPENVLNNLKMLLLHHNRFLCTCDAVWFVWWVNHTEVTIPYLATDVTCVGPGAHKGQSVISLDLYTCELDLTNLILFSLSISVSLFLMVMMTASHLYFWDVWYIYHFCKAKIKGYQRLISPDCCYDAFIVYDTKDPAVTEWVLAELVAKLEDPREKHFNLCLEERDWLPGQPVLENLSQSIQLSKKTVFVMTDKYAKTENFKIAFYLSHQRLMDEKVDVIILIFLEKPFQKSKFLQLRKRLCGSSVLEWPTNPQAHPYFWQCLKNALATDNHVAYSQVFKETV
Procedure, shortened: (§1)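 Inhibitors are tested in dose response (0.05 nM–50 μM) on HEK-Blue reporter cells expressing human TLR7, TLR8 or TLR9. After 30 min at room temperature, each line is stimulated with its own agonist (gardiquimod 7.5 μM, R848 15.9 μM or ODN2006 5 nM, final) and SEAP is measured 22 h later.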

[2] = target: T2, human TLR8 (Homo sapiens, UniProt Q9NR97); test: TLR8 inhibition reporter assay (HEK-Blue cells, secreted embryonic alkaline phosphatase reporter); conditions: HEK-Blue cells overexpressing human TLR8, stimulated with R848 15.9 μM; read-out: TLR 8 IC50
T2 construct: host or cells: HEK-Blue cells (HEK293-derived reporter line)
T2 sequence (Q9NR97 27-1041): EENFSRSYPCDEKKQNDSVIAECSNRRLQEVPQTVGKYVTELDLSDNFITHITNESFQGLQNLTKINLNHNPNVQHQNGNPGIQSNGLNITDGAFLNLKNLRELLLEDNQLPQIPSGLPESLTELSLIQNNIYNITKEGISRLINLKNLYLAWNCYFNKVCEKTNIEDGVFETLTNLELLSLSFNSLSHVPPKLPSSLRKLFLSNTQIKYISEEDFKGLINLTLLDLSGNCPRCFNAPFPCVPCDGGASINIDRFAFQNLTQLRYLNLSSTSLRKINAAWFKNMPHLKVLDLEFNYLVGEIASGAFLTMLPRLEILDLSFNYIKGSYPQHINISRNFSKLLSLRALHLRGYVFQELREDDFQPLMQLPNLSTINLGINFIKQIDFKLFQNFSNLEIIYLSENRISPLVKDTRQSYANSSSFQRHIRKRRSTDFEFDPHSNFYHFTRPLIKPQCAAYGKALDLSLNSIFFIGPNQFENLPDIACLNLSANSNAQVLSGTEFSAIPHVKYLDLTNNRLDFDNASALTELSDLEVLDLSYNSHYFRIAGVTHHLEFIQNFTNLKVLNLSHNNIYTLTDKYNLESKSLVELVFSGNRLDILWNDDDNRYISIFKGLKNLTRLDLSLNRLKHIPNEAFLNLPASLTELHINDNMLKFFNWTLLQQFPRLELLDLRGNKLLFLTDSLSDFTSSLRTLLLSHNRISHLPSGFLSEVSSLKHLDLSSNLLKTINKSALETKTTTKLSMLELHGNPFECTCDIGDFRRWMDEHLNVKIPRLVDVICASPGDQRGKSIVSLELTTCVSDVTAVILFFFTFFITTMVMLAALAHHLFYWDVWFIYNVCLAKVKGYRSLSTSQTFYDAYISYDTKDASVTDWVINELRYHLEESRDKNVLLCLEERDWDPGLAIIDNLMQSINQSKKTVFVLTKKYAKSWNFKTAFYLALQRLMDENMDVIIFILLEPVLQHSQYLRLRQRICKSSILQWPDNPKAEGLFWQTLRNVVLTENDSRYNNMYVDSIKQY
Procedure, shortened: as §1

[3] = target: T3, human TLR9 (Homo sapiens, UniProt Q9NR96); test: TLR9 inhibition reporter assay (HEK-Blue cells, secreted embryonic alkaline phosphatase reporter)
T3 construct: host or cells: HEK-Blue cells (HEK293-derived reporter line)
T3 sequence (Q9NR96 26-1032): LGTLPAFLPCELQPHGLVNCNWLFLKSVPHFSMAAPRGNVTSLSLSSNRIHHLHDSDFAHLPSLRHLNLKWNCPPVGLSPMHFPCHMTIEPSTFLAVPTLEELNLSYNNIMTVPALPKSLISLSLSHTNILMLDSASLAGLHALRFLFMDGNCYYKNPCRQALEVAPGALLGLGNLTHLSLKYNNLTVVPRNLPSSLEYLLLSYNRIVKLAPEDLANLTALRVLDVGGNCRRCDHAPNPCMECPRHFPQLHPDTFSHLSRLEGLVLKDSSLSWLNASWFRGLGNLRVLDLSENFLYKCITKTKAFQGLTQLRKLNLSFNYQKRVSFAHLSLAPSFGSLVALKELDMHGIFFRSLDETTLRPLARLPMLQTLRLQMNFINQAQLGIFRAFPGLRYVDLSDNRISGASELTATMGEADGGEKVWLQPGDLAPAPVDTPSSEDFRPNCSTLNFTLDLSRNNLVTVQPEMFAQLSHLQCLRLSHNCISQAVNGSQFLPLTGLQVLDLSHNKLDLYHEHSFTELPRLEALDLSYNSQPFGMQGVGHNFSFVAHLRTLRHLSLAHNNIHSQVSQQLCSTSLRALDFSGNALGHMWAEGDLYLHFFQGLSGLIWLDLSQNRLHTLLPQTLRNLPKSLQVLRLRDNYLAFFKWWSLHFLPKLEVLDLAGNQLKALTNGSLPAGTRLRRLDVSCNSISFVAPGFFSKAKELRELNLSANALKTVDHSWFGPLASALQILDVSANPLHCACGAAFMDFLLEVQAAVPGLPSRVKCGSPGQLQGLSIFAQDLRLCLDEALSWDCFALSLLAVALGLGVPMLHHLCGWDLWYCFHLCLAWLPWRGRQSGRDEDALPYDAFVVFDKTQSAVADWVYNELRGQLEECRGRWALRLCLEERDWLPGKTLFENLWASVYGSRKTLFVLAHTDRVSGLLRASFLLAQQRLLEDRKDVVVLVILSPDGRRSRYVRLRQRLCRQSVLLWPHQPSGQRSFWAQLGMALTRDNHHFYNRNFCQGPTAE
Procedure, shortened: as §1

[4] = HEK-Blue cells overexpressing human TLR9, stimulated with ODN2006 5 nM, 22 hour incubation, reporter readout
[5] = HEK-Blue cells overexpressing human TLR9, stimulated with ODN2006 5 nM, read-out: TLR 9 IC50
[6] = HEK-Blue human TLR9 reporter cells

Structure (SMILES)	IC50 [1] [nM]	IC50 [2] [nM]	IC50 [3, 4] [nM]	IC50 [3, 5] [nM]	IC50 [3, 6] [nM]	IC50 [3] [nM]
CC(C)N1C2CCC1CC(N1CCC(c3ccc4nc(-c5ccc(S(C)(=O)=O)cc5)n(C)c4c3F)CC1)C2 (single isomer, unassigned) [Example 104, 7-fluoro-6-(1-(8-isopropyl-8-azabicyclo[3.2.1]octan-3-yl)piperidin-4-yl)-1-methyl-2-(4-(methylsulfonyl)phenyl)-1H-benzo[d]imidazole]	39200	> 50000	140	–	–	–
CCOP(=O)(OCC)c1ccc(-c2nc3c(C)cc(C4CCN(C5CCN(CC(C)C)CC5)CC4)cc3n2C)cc1 [Example 421, diethyl(4-(6-(1′-isobutyl-[1,4′-bipiperidin]-4-yl)-1,4-dimethyl-1H-benzo[d]imidazol-2-yl)phenyl)phosphonate]	700	> 50000	140	139	–	–
COCCN1C2CCC1CC(N1CCC(c3cc4nc(-c5ccc(S(C)(=O)=O)cc5)n(C)c4cc3F)CC1)C2 (stereo not drawn) [Example 257, 6-fluoro-5-(1-(8-(2-methoxyethyl)-8-azabicyclo[3.2.1]octan-3-yl)piperidin-4-yl)-1-methyl-2-(4-(methylsulfonyl)phenyl)-1H-benzo[d]imidazole]	30700	> 50000	–	49	–	49
Cn1c(-c2ccc(S(C)(=O)=O)cc2)nc2ccc(C3CCN(C4CC5CCC(C4)N5CC4CC4)CC3)c(F)c21 (stereo not drawn) [Example 268, 6-(1-(8-(cyclopropylmethyl)-8-azabicyclo[3.2.1]octan-3-yl)piperidin-4-yl)-7-fluoro-1-methyl-2-(4-(methylsulfonyl)phenyl)-1H-benzo[d]imidazole]	27600	> 50000	–	60	–	60
CCOP(=O)(OCC)c1ccc(-c2nc3c(C)cc(C4CCN(C5CCN(C6CC6)CC5)CC4)cc3n2C)cc1 [Example 422, diethyl(4-(6-(1′-cyclopropyl-[1,4′-bipiperidin]-4-yl)-1,4-dimethyl-1H-benzo[d]imidazol-2-yl)phenyl)phosphonate]	4000	27300	180	180	–	–
CS(=O)(=O)c1ccc(-c2nc3ccc(C4CCN(C5CCN(C6CCC6)CC5)CC4)c(F)c3[nH]2)cc1 [Example 180, 6-(1′-cyclobutyl-[1,4′-bipiperidin]-4-yl)-7-fluoro-2-(4-(methylsulfonyl)phenyl)-1H-benzo[d]imidazole]	> 50000	> 50000	–	–	–	25
CC(C)N1C2CCC1CC(N1CCC(c3ccc4c(nc(-c5ccc(S(C)(=O)=O)cc5)n4C)c3F)CC1)C2 (single isomer, unassigned) [Example 89, 4-fluoro-5-(1-(8-isopropyl-8-azabicyclo[3.2.1]octan-3-yl)piperidin-4-yl)-1-methyl-2-(4-(methylsulfonyl)phenyl)-1H-benzo[d]imidazole]	> 50000	> 50000	160	162	–	–

The remaining compounds from weak to strong by IC50 [1], led by results:

IC50 [1] [nM]	IC50 [2] [nM]	IC50 [3, 4] [nM]	IC50 [3, 5] [nM]	IC50 [3, 6] [nM]	IC50 [3] [nM]	Structure (SMILES)
21100	> 50000	–	30	–	30	CC(C)CN1C2CCC1CC(N1CCC(c3cc4nc(-c5ccc(S(C)(=O)=O)cc5)n(C)c4cc3F)CC1)C2 (stereo not drawn) [Example 247, 6-fluoro-5-(1-(8-isobutyl-8-azabicyclo[3.2.1]octan-3-yl)piperidin-4-yl)-1-methyl-2-(4-(methylsulfonyl)phenyl)-1H-benzo[d]imidazole]
3800	> 50000	100	100	–	–	Cc1cc(C2CCN(C3CCN(CC(C)C)CC3)CC2)cc2[nH]c(-c3ccnc4ccccc34)nc12 [Example 59, 4-(6-(1′-isobutyl-[1,4′-bipiperidin]-4-yl)-4-methyl-1H-benzo[d]imidazol-2-yl)quinoline]
3100	> 50000	–	48	48	–	Cn1c(-c2ccc(S(C)(=O)=O)cc2)nc2c(F)cc(C3CCN(C4CCCN(C5CCOCC5)CC4)CC3)cc21 (stereo not drawn) [Example 301, 4-fluoro-1-methyl-2-(4-(methylsulfonyl)phenyl)-6-(1-(1-(tetrahydro-2H-pyran-4-yl)azepan-4-yl)piperidin-4-yl)-1H-benzo[d]imidazole]
1200	> 50000	–	28	28	–	CS(=O)(=O)c1ccc(-c2nc3c(F)cc(C4CCN(C5CC6CCC(C5)N6C5CCOCC5)CC4)cc3n2C2CC2)cc1 (stereo not drawn) [Example 329, 1-cyclopropyl-4-fluoro-2-(4-(methylsulfonyl)phenyl)-6-(1-(8-(tetrahydro-2H-pyran-4-yl)-8-azabicyclo[3.2.1]octan-3-yl)piperidin-4-yl)-1H-benzo[d]imidazole]
